How the values were obtained:
[1] = test system: cellular esterase(s); assay: Ciclesonide pro-drug hydrolysis to des-CIC in equine airway (bronchioalveolar) organoid-derived transwells; format: in vitro ADME; conditions: 50 μM or 500 μM Ciclesonide, over time
Description: (§1) FIG. 10A-10E. Identification and quantification of Ciclesonide metabolites produced by equine airway and hepatic organoid-derived tissue systems. FIG. 10A includes the structure of Ciclesonide, which is a pro-drug that is metabolized in the lungs to the active form, desisobutyryl-Ciclesonide (des-CIC). FIG. 10B includes MS spectra showing representative fragmentation pattern of kinetic des-CIC conversion from CIC hydrolysis generated by equine bronchioalveolar organoid-derived transwells treated with pro-drug. FIGS. 10C-10D plot quantification of des-CIC metabolite produced by equine airway organoid-derived transwells treated with 50 μM (FIG. 10C) or 500 μM (FIG. 10D) Ciclesonide as a function of time. FIG. 10E plots quantification of des-CIC metabolite produced by equine hepatic organoid-derived transwells treated with 500 μM Ciclesonide as a function of time. […]
FIG. 10B, includes representative fragmentation pattern of kinetic des-CIC conversion from CIC hydrolysis generated by equine bronchioalveolar organoid-derived transwells treated with pro-drug. […] Quantification of des-CIC metabolite produced by equine airway organoid-derived transwells treated with 50 μM (FIG. 10C) or 500 μM (FIG. 10D) Ciclesonide over time. […]

[2] = test system: cellular esterase(s); assay: Ciclesonide pro-drug hydrolysis to des-CIC in equine hepatic organoid-derived transwells; format: in vitro ADME; conditions: 500 μM Ciclesonide, over time
Description: as §1
Apical samples were obtained from the transwell upper chamber containing the bronchioalveolar tissue; basolateral samples were obtained from the lower transwell chamber containing untreated medium. FIG. 10E includes the results of quantification of des-CIC metabolite produced by equine hepatic organoid-derived transwells treated with 500 μM Ciclesonide. […]

[3] = test system: CYP3A89
Description: FIG. 5A-51I. Development of an equine intestine-on-a-chip. FIG. 5A: Schematic representation of equine intestine-on-a-chip, including the top view of the Emulate chip (left), and a vertical slice (right) showing the epithelial channel (1, blue), the microvasculature channel (2, pink), and microchannels populated by organoid-derived intestinal epithelial cells (3) and endothelial cells (4), separated by flexible, porous membrane coated by extracellular matrices (5). FIG. 5B: Brightfield image of an equine intestine-chip cultured for 12 days in the presence of fluid flow and stretch (30 μl/h flow, 10% strain, 0.2 Hz). FIG. 5C: High magnification, phase contrast image of the intestinal epithelium channel depicted in b. […] FIG. 5E: Intestinal epithelium height measured in situ over a 400 μm section of the intestine-chip depicted in b. […] FIG. 5G: qPCR analysis of transcripts associated with intestine cell differentiation in organ-chips compared to 3D enteroid culture. (FIG. 5H: Testosterone conversion by epithelial CYP3A89 in equine intestine-chips was monitored by LC-MS/MS. Graph depicts the percent conversion of testosterone to 6-hydroxytestosterone at two concentrations. Scale bar represents 100 μm in panels 5B, 5C, 5D, and 5F. Schematic in 5A adapted and modified from Kasendra et al., eLife 2020.
Finally, studies were performed to evaluate the suitability of intestine chips for drug metabolism and CYP3A89 (CYP3A4 homolog (24)) induction. For these experiments, we inoculated testosterone into the inlet reservoir for the epithelial channel, flowed the testosterone-containing media through the chip at a rate of 30 μl/h, and collected samples from the effluent chambers from both the epithelial and vasculature channels.

Compound	pro-drug hydrolysis to desisobutyryl-Ciclesonide (kinetics in words) [1]	pro-drug hydrolysis to desisobutyryl-Ciclesonide (kinetics in words) [2]	channel in which testosterone metabolites were detected [3]	time by which CYP3A89-mediated conversion of testosterone to 6-hydroxytestosterone was revealed ([3]; equine intestine-chip, flow 30 μl/h, effluent samples, post-treatment) [h]	time of peak testosterone metabolism ([3]; horse)
CC(C)C(=O)OCC(=O)[C@@]12O[C@H](C3CCCCC3)O[C@@H]1C[C@H]1[C@@H]3CCC4=CC(=O)C=C[C@]4(C)[C@H]3[C@@H](O)C[C@@]12C [Ciclesonide]	rapid and linear	rapid and linear			
C[C@]12CC[C@H]3[C@@H](CCC4=CC(=O)CC[C@@]43C)[C@@H]1CC[C@@H]2O [testosterone]			detected only in the epithelial channel effluent	≤ 1	roughly 3 h
